Experimental data: PMC10066365, “Nemacol is a small molecule inhibitor of C. elegans vesicular acetylcholine transporter with anthelmintic potential” (Nature Communications, 2023)
“And” between values parts separate entries of the source, which are not always exact repeats. Equal values may be shown once. Read-outs that look alike come from different tables or passages of the source.

What was measured:
[1] = test system: Dirofilaria immitis L3/L4; assay: Dirofilaria immitis L3/L4 motility assay (DiroImager, 72 h); conditions: Dirofilaria immitis L4
[2] = test system: Pristionchus pacificus; assay: Pristionchus pacificus motor disruption dose-response on solid media, 1 h; conditions: for mean % any phene (coiled, jerky-Unc or paralyzed): Pristionchus pacificus young adults, mean of three biological replicates; for EC50: Pristionchus pacificus, 1 h, read-out: P. pacificus motor disruption EC50
[3] = test system: C. elegans; assay: C. elegans motor phenotype scoring on solid media (Punc/jerky-unc, coiled, paralyzed), wild-type young adults; type: in vivo, Caenorhabditis elegans; conditions: for any phene, mean % fraction of young adults exhibiting any phenotype (coiled, jerky-Unc or paralyzed) / atypical locomotion (number of animals) / coiled (number of animals) / no phene (number of animals) / paralyzed (number of animals) / any phene (mean % fraction of young adults exhibiting any phenotype: coiled, jerky-Unc or paralyzed): one hour; for any phene, mean % fraction of young adults exhibiting any phenotype (coiled, jerky-Unc or paralyzed) / any phene (mean % fraction of young adults exhibiting any phenotype: coiled, jerky-Unc or paralyzed): mean of three biological replicates; for atypical locomotion (number of animals) / coiled (number of animals) / no phene (number of animals) / paralyzed (number of animals): young adults, 20 animals per trial, single replicate counts; for EC50: Caenorhabditis elegans, read-out: C. elegans - motor disruption EC50
[4] = test system: Dirofilaria immitis microfilariae; assay: Dirofilaria immitis microfilariae immobility assay (DiroImager, 72 h); conditions: Dirofilaria immitis microfilariae
Outline: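 Motility read after 72 h drug exposure with an image-based high-throughput plate imager, 1% DMSO medium serving as negative control. Missouri-isolate microfilariae, roughly 250 per well, freshly purified and cultured in supplemented RPMI 1640.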

[5] = conc 3.75, observed at one hour
[6] = any motor phenotype after 1 h on solid media, ± 95% CI

Structure (SMILES) | % effect (motility), DIROIM L4 ([1]; 2 µM) [%] | % effect (motility), DIROIM L4 ([1]; 10 µM) [%] | % effect (motility), DIROIM L4 ([1]; 50 µM) [%] | mean % any phene (coiled, jerky-Unc or paralyzed) [2, 5] [%] | mean % any phene (coiled, jerky-Unc or paralyzed) ([2]; conc 15, observed at one hour) [%] | mean % any phene (coiled, jerky-Unc or paralyzed) ([2]; conc 60, observed at one hour) [%] | EC50 [2] [µM] | any phene, mean % fraction of young adults exhibiting any phenotype (coiled, jerky-Unc or paralyzed) ([3]; 3.75uM) [%] | atypical locomotion (number of animals) ([3]; 3.75uM) | coiled (number of animals) ([3]; 3.75uM) | no phene (number of animals) ([3]; 3.75uM) | paralyzed (number of animals) ([3]; 3.75uM) | any phene, mean % fraction of young adults exhibiting any phenotype (coiled, jerky-Unc or paralyzed) ([3]; 15uM) [%] | atypical locomotion (number of animals) ([3]; 15uM) | coiled (number of animals) ([3]; 15uM) | % effect (motility), DIROIM MF ([4]; 0.016 µM) [%] | % effect (motility), DIROIM MF ([4]; 0.08 µM) [%] | % effect (motility), DIROIM MF ([4]; 0.4 µM) [%] | % effect (motility), DIROIM MF ([4]; 2 µM) [%] | % effect (motility), DIROIM MF ([4]; 10 µM) [%] | other results
CN1CCN(c2ccc([N+](=O)[O-])cc2)CC1 [Nemacol-7] | 5 | 5 | 10 | 1.667 | 5 | 41.6667 | > 60 | 0 | 0 | 0 | 20 | 0 | 3.333 | 0 and 1 and 2 | 0 | 0 | 0 | 0 | 0 | 0 | no phene (number of animals) ([3]; 15uM): 20 and 19 and 18; paralyzed (number of animals) ([3]; 15uM): 0; any phene, mean % fraction of young adults exhibiting any phenotype (coiled, jerky-Unc or paralyzed) ([3]; 60uM): 14.1667%; atypical locomotion (number of animals) ([3]; 60uM): 1 and 2 and 0 and 4 and 8; coiled (number of animals) ([3]; 60uM): 0; no phene (number of animals) ([3]; 60uM): 19 and 18 and 20 and 16 and 12; paralyzed (number of animals) ([3]; 60uM): 0; EC50 ([3]; 1 h): > 60 µM
O=[N+]([O-])c1ccc(N2CCN(C3CCCCCCC3)CC2)cc1 [Nemacol-21] |  | 0 | 0 | 0.8333 | 6.667 | 50 | 60 ± 10.2 |  |  |  |  |  |  |  |  | 0 | 0 | 0 | 0 | 0 | any phene (mean % fraction of young adults exhibiting any phenotype: coiled, jerky-Unc or paralyzed) ([3]; 3.75uM, third c14 line of each analog): 3.333%; any phene (mean % fraction of young adults exhibiting any phenotype: coiled, jerky-Unc or paralyzed) ([3]; 15uM, second c14 line of each analog): 17.5%; EC50 [3, 6]: 19.6 ± 37.4 µM
O=[N+]([O-])c1cccc(CN2CCN(C3CCCCC3)CC2)c1 [Nemacol-14] | 0 | 5 | 5 | 0 | 0.8333 | 12.5 | > 60 | 0.8333 | 0 | 0 | 20 and 19 | 0 and 1 | 0 | 0 | 0 | 0 | 0 | 0 | 0 | 0 | no phene (number of animals) ([3]; 15uM): 20; paralyzed (number of animals) ([3]; 15uM): 0; any phene, mean % fraction of young adults exhibiting any phenotype (coiled, jerky-Unc or paralyzed) ([3]; 60uM): 6.667%; atypical locomotion (number of animals) ([3]; 60uM): 0 and 2; coiled (number of animals) ([3]; 60uM): 0 and 2; no phene (number of animals) ([3]; 60uM): 20 and 18 and 16; paralyzed (number of animals) ([3]; 60uM): 0; EC50 [3, 6]: > 60 µM
